Data: patent US20260014225A1, “USE OF HULLESS BARLEY GRASS EXTRACT IN CONTROLLING COLORECTAL CANCER AND ULCERATIVE COLITIS” (Shanghai Jiao Tong University, priority 2024, published 2026)

Tests used:
Format in all cases: in vivo, C57BL/6N male mice
[1] = tested on: acute ulcerative colitis model in mice; assay: DSS-induced acute ulcerative colitis mouse model (body weight, DAI, colon length, survival); conditions: 3% DSS colitis mice, gavage; model group 2.93, blank 0 (FIG. 3C)
Source text: In this experiment, DSS was used to construct an acute ulcerative colitis model in mice, and a specific process is shown in FIG. 1. C57BL/6N male mice were placed in an SPF barrier environment for adaptive feeding for one week, while mice with abnormal weight were eliminated. […] From the first day, mice in all groups except the blank group were given drugs by gavage throughout the whole process; from the fourth day, mice in all groups (except the blank group) drank 3% DSS aqueous solution freely for one week; from the tenth day, 3% DSS was replaced with sterile drinking water for experimental mice, and the mice were allowed to recover naturally for one week; on the eighteenth day, the experiment ended and samples were collected from the mice. After the mice were anesthetized, blood was collected from their orbits. After blood collection, the liver, kidney, and spleen tissues of the mice were collected and weighed. The colon tissue from the cecum to the anus of the mice was collected and its length was measured. A 1 cm to 2 cm colon tissue from the anus was fixated in 4% paraformaldehyde solution for histopathological staining. […] During the mouse modeling period, the mouse status was observed daily and the mouse weight was recorded.
The fresh mouse feces were collected and the fecal occult blood was determined according to the instructions of the fecal occult blood assay kit. […]

[2] = tested on: colitis-associated colorectal cancer model in mice; assay: AOM/DSS-induced colitis-associated colorectal cancer mouse model (body weight, colon, tumors, serum IL-6)
Method: In this experiment, a mouse colitis-associated colorectal cancer model was established using AOM/DSS, and a specific process is shown in FIG. 2. C57BL/6N male mice were placed in an SPF barrier environment for adaptive feeding for one week, while mice with abnormal weight were eliminated. The remaining mice were randomly divided into […], namely: blank group, 3% DSS+normal saline group (a model group), 3% DSS+300 mg/kg mesalazine (a positive drug group), 3% DSS+600 mg/kg hulless barley grass-derived polyphenol crude extract (Example 1), 3% DSS+400 mg/kg hulless barley grass-derived polysaccharide crude extract (Comparative Example 1), 3% DSS+200 mg/kg hulless barley grass-derived lipid crude extract (Comparative Example 2), and 3% DSS+600 mg/kg hulless barley seed-derived polyphenol crude extract (Comparative Example 3). There were ten mice in each group. In the second week, the mice in the model group, positive group, grass polyphenol group, polysaccharide group, lipid group, and seed polyphenol group were intraperitoneally injected with 10 mg/kg AOM. From the third week, the mice drank 3% DSS aqueous solution for one week, and then the DSS aqueous solution was replaced with sterile water for the mice to drink. The experiment ended after six weeks. During the entire experiment, each group of mice was gavaged with medication according to the grouping. The conditions of mice were observed and their weights were recorded each time they were gavaged. At the end of the experiment, all mice were anesthetized, and the colon (from the anus to the cecum), liver, kidney, and spleen tissues of the mice were collected and weighed after dissection. The intestinal contents were gently rinsed with PBS and the length of the mouse colon tissue was measured. The colon was longitudinally cut open with ophthalmic scissors, and the number and size of tumors in the mouse colon were measured with a vernier caliper and recorded. A part of the whole colon of the mouse was taken for the subsequent preparation of colon Swiss rolls, fixated in 4% paraformaldehyde fixative for histopathological analysis, and the remaining tissues were quick-frozen in liquid nitrogen and then transferred to a −80° C. refrigerator for further measurement of qPCR and other experiments.

[3] = tested on: colon tissue of colorectal cancer mice; assay: Colon Swiss roll H&E histopathology of colorectal cancer mice; conditions: AOM/DSS colorectal cancer mice, compared with the model group (FIG. 13)
Method: The colon was taken out from the fixative in a fume hood, one end of the colon was gently clamped with ophthalmic forceps, and the entire colon was gently rolled around the forceps in one direction. Be careful not to do it too tight or too loose, otherwise the intestinal villi might fall over or become loose. The Swiss roll was prepared by piercing the edge of the rolled intestine with a fine needle to complete the fixation, and the ophthalmic forceps were removed in the center of the colon. The Swiss roll was placed in an embedding frame and labeled, followed by dehydration and wax immersion, paraffin embedding, paraffin sectioning, dewaxing to water, hematoxylin staining, eosin staining, dehydration and sealing, microscopic examination, and graphic analysis.

TNF-α, IL-6, IL-1β mRNA = assay: qPCR of inflammatory factors in tumor tissue of colorectal cancer mice
Method: (§1) The whole colon of a mouse was divided into two major parts, namely the tumor segment and the white-side segment. 20 mg of tumor tissue and white-side tissue were taken from the same mouse for total RNA extraction and reverse transcription reaction. The specific operation was the same as above.
(§2) The experimental data were plotted using GraphPad Prism9.0, and statistical analysis was conducted using one-way ANOVA, where “ns” indicated no significant difference, “*” indicated p<0.05, “**” indicated p<0.01, “***” indicated p<0.001, and “****” indicated p<0.0001. The relative expression of mRNA in qPCR was calculated using the […] method.

COX-2, EGFR, INOS genes = assay: qPCR of COX-2, EGFR and INOS genes in tumor tissue of colorectal cancer mice
Method: as §1, §2

intestinal flora = assay: 16S rRNA sequencing of intestinal flora in colorectal cancer mice; conditions: colorectal cancer mice (FIG. 16D)
Method: The mouse feces was collected using a 1.5 mL EP tube, immediately frozen in liquid nitrogen, and stored at −80° C. before sample delivery. 6 samples of mouse colon contents were collected from each group and placed in dry ice for 16S rRNA sequencing by Qingdao Biomarker Technologies Co., LTD.

[4] = AOM/DSS colorectal cancer mice, compared with the model group (FIG. 12C)

Question: Which “disease activity index (DAI)” value [1] does the source give for `Nc1ccc(O)c(C(=O)O)c1` [mesalazine] here?
Answer: 2.33

Question: And the “colon weight per unit length (increase in tumor weight caused by modeling)” value ([2]; AOM/DSS colorectal cancer mice (FIG. 11C))?
Answer: effectively reduced the increase in tumor weight caused by modeling

Question: What about the “proportion of tumors above 3 mm” value [2, 4] of the same compound?
Answer: decreased

Question: And the “proportion of tumors less than 2 mm” value [2, 4]?
Answer: increased significantly

Question: And the “proportion of tumors of 2 mm to 3 mm” value [2, 4]?
Answer: decreased

Question: And the “body weight when the experiment was over” value ([2]; AOM/DSS colorectal cancer mice, last day (FIG. 10B))?
Answer: significant decrease

Question: And the “colon thickness and tumors in pathological sections (H&E)” value [3]?
Answer: showed a similar trend

Question: What about the “relative expression level of TNF-α mRNA” value (TNF-α, IL-6, IL-1β mRNA; compared with the model group (FIG. 14A)) of the same compound?
Answer: significantly reduced

Question: What about the “relative expression level of IL-6 mRNA” value (TNF-α, IL-6, IL-1β mRNA; compared with the model group (FIG. 14B)) of the same compound?
Answer: significantly reduced

Question: And the “relative expression level of IL-1β mRNA” value (TNF-α, IL-6, IL-1β mRNA; compared with the model group (FIG. 14C))?
Answer: significantly reduced

Question: What about the “expression level of COX-2 gene” value (COX-2, EGFR, INOS genes; compared with the model group (FIG. 15A)) of the same compound?
Answer: significantly downregulated

Question: And the “expression level of EGFR gene” value (COX-2, EGFR, INOS genes; compared with the model group (FIG. 15B))?
Answer: significantly downregulated

Question: What about the “expression level of INOS gene” value (COX-2, EGFR, INOS genes; compared with the model group (FIG. 15C)) of the same compound?
Answer: significantly downregulated

Question: And the “richness and uniformity of the intestinal flora (rank abundance curve)” value (intestinal flora)?
Answer: closest to those of the blank group
